Laboratory results as given in ChEMBL document CHEMBL5653610, “The novel phosphodiesterase 10A inhibitor THPP-1 has antipsychotic-like effects in rat and improves cognition in rat and rhesus monkey” (Neuropharmacology, 2013).
Active and inactive are the calls of the source. The calls are words filed in the database; no cut-off is given here.

Key:
[1] = Mean drug level in plasma of Wistar Hannover rat at 10 mg/kg, po dosed as single dose after 4 hrs by UPLC-MS analysis; assay type: ADME, organism-based
[2] = system: Rattus norvegicus; test: Effect on concentration of cyclic nucleotides in Wistar Hannover rat striatal tissues at 3 to 30 mg/kg, po by Western blot analysis; assay type: functional, organism-based; details: Striatum, dose 3-30 mg/kg
[3] = Unbound drug level in plasma of Wistar Hannover rat engaged in object retrieval detour task at 3 mg/kg, po dosed for 4 days prior to testing and on day 5 drug was administered orally 2 h prior to testing and measured after 4 hrs by UPLC-MS analysis; assay type: ADME, organism-based; details: in vivo, 120 h, time 5 day
[4] = Unbound drug level in Wistar Hannover rat plasma at 0.1 mg/kg, po after 2 hrs by UPLC-MS analysis; assay type: ADME, organism-based; details: in vivo
[5] = Bioavailability in orally dosed rhesus monkey after 4 hrs by UPLC-MS analysis; assay type: ADME, organism-based, Macaca mulatta; details: in vivo, route po
[6] = system: Rhesus monkey; test: Antipsychotic activity in rhesus monkey assessed as attenuation of ketamine impaired performance on difficult trials at 3 mg/kg, po dosed for 4 days prior to testing and on day 5 drug was administered orally 2 h prior to testing by object retrieval detour task; assay type: functional, organism-based; details: Macaca mulatta, time 4.0 day
[7] = Unbound drug level in Wistar Hannover rat plasma at 1 mg/kg, po after 2 hrs by UPLC-MS analysis; assay type: ADME, organism-based; details: in vivo
[8] = Clearance in orally dosed rat after 2 hrs by UPLC-MS analysis; assay type: ADME, organism-based; details: in vivo, route po
[9] = system: Rattus norvegicus; test: Antipsychotic activity in Wistar Hannover rat assessed as increase in recognition at 0.3 mg/kg, po dosed 90 mins before identical objects by novel object recognition test; assay type: functional, organism-based
[10] = system: Rattus norvegicus; test: Reduction in locomotor activity in Wistar Hannover rat at 1 mg/kg, po dosed 90 mins before identical objects by novel object recognition test; assay type: functional, organism-based
[11] = system: Rattus norvegicus; test: In-vivo increase of GluR1 S845 phosphorylation in membrane fraction of Wistar Hannover rat striatal tissues at 30 mg/kg, po after 2 hrs by Western blot analysis relative to control; assay type: functional, Striatum
[12] = system: Rattus norvegicus; test: Reduction in object exploration in Wistar Hannover rat at 1 mg/kg, po dosed 90 mins before identical objects by novel object recognition test; assay type: functional, organism-based
[13] = system: Rattus norvegicus; test: Antipsychotic activity in Wistar Hannover rat assessed as reduction in MK-801-induced psychomotor activity at 1.5 to 4.5 mg/kg, po dosed 120 mins before MK-801 challenge and measured after 180 mins; assay type: functional, organism-based; details: dose 1.5-4.5 mg/kg, time 300.0 min
[14] = Unbound drug level in Wistar Hannover rat plasma at 3 mg/kg, po after 2 hrs by UPLC-MS analysis; assay type: ADME, organism-based; details: in vivo
[15] = system: Rattus norvegicus; test: In-vivo increase of GluR1 S845 phosphorylation in membrane fraction of Wistar Hannover rat striatal tissues at 3 to 30 mg/kg, po after 2 hrs by Western blot analysis; assay type: functional, organism-based; details: Striatum, dose 3-30 mg/kg
[16] = Total drug level in plasma of Wistar Hannover rat not-engaged in object retrieval detour task at 10 mg/kg, po dosed for 4 days prior to testing and on day 5 drug was administered orally 2 h prior to testing and measured after 4 hrs by UPLC-MS analysis; assay type: ADME, organism-based; details: time 5 day
[17] = system: Rattus norvegicus; test: Antipsychotic activity in Wistar Hannover rat assessed as reduction in MK-801-induced psychomotor activity at 3 mg/kg, po for 14 days followed by drug dosing at 3 mg/kg, po 120 mins before MK-801 challenge; assay type: functional, organism-based; details: time 20280.0 min
[18] = Protein binding in orally dosed rat plasma after 2 hrs by UPLC-MS analysis; assay type: ADME, organism-based; details: route po, read-out: PPB (converted)
[19] = Total drug level in Wistar Hannover rat plasma at 3 mg/kg, po after 2 hrs by UPLC-MS analysis; assay type: ADME, organism-based
[20] = Drug level in Wistar Hannover rat CSF at 0.3 mg/kg, po after 2 hrs by UPLC-MS analysis; assay type: ADME, organism-based, Cerebrospinal fluid; details: read-out: Drug uptake
[21] = Half life in orally dosed dog after 2 hrs by UPLC-MS analysis; assay type: ADME, organism-based, Canis lupus familiaris; details: in vivo, route po
[22] = Total drug level in plasma of […] engaged in object retrieval detour task at 10 mg/kg, po dosed for 4 days prior to testing and on day 5 drug was administered orally 2 h prior to testing and measured after 4 hrs by UPLC-MS analysis; assay type: ADME, organism-based; details: time 5 day
[23] = Protein binding in orally dosed rhesus monkey plasma after 4 hrs by UPLC-MS analysis; assay type: ADME, organism-based, Macaca mulatta; details: route po, read-out: PPB (converted)
[24] = Total drug level in Wistar Hannover rat plasma at 30 mg/kg, po after 2 hrs by UPLC-MS analysis; assay type: ADME, organism-based
[25] = Drug level in Wistar Hannover rat CSF at 10 mg/kg, po after 2 hrs by UPLC-MS analysis; assay type: ADME, organism-based, Cerebrospinal fluid; details: read-out: Drug uptake
[26] = Half life in orally dosed rat after 2 hrs by UPLC-MS analysis; assay type: ADME, organism-based; details: in vivo, route po
[27] = Drug level in Wistar Hannover rat CSF at 30 mg/kg, po after 2 hrs by UPLC-MS analysis; assay type: ADME, organism-based, Cerebrospinal fluid; details: read-out: Drug uptake
[28] = system: Rattus norvegicus; test: In-vivo increase of CREB phosphorylation in membrane fraction of Wistar Hannover rat striatal tissues at 10 mg/kg, po after 2 hrs by Western blot analysis relative to control; assay type: functional, Striatum

In the case of `COCCOc1nc(-c2ccc(Cl)nc2)nc2c1CN(C(=O)c1ncn3ccccc13)CC2` [THPP-1], the concentration at 4 h [1] is reported as 1530 nM, the Activity [2] is reported as “inactive” and the “Cp(f)” value [3] is reported as 7 nM. For the same molecule, the “Cp(f)” value [4] was 0.6 nM, the bioavailability [5] was 31% and the Activity [6] was “Active”. The “Cp(f)” value [7] was 4.9 nM, the CL/F [8] was 6 mL/min/kg and the Activity [9] was “Active”. For the same molecule, the Activity [10] was “Active”, the “fold change (FC)” value [11] was 9.5 and the Activity [12] was “Active”. For the same molecule, the Activity [13] was “Dose-Dependent Effect”, the “Cp(f)” value [14] was 13.4 nM and the Activity [15] was “Dose-Dependent Effect”. The concentration at 120 h [16] was 2820 nM, the Activity [17] was “Active” and the fraction unbound at 2 h [18] was 0.018. It also gave a concentration at 2 h [19] of 745 nM, a concentration at 2 h [20] of 3 nM and a half-life [21] of 7.2 h. For the same molecule, the concentration at 120 h [22] was 1600 nM, the fraction unbound at 4 h [23] was 0.012 and the concentration at 2 h [24] was 1800 nM. For the same molecule, the concentration at 2 h [25] was 16.1 nM, the half-life [26] was 1.4 h and the concentration at 2 h [27] was 20.1 nM. For the same molecule, the “fold change (FC)” value [28] was 2.3.
